Experimental data from PubChem BioAssay AID1963960 (Molecular Pharmacology Branch, DTP, NCI, 2024).
pIC50: −log10 of the molar value.

Tested on: MDA-MB-468 spheroids with HUVEC/MSC, viability
Assay: Anticancer human tumor MDA-MB-468 cell line growth inhibition [PI3K];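 also: spheroids exposed to agents for seven days before readout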;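 as to viability, T/C: 100% = DMSO vehicle control viability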
Settings: for pIC50: curve of first compound; for viability, T/C: stronger effect = lower value
Outline: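 Multi-cell spheroids combine tumor cells with HUVEC and human MSCs, treated with targeted agents alone or with inavolisib, alpelisib, duvelisib or copanlisib. Concentrations fall in half-log steps from at or near clinical Cmax, or from 10 microM where Cmax is unknown; viability read-out.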

[1] = second compound 0.00316 µM, first compound 0.0316 µM
[2] = second compound 0.00316 µM, first compound 0.1 µM
[3] = second compound 0.00316 µM, first compound 0.316 µM
[4] = second compound 0.00316 µM, first compound 1 µM
[5] = second compound 0.00316 µM, first compound 3.16 µM
[6] = second compound 0.00316 µM, first compound 10 µM
[7] = second compound 0.01 µM, first compound 0.0316 µM
[8] = second compound 0.01 µM, first compound 0.1 µM
[9] = second compound 0.01 µM, first compound 0.316 µM
[10] = second compound 0.01 µM, first compound 1 µM
[11] = second compound 0.01 µM, first compound 3.16 µM
[12] = second compound 0.01 µM, first compound 10 µM
[13] = second compound 0.0316 µM, first compound 0.0316 µM
[14] = second compound 0.0316 µM, first compound 0.1 µM
[15] = second compound 0.0316 µM, first compound 0.316 µM
[16] = second compound 0.0316 µM, first compound 1 µM
[17] = second compound 0.0316 µM, first compound 3.16 µM
[18] = second compound 0.0316 µM, first compound 10 µM
[19] = second compound 0.1 µM, first compound 0.0316 µM
[20] = second compound 0.1 µM, first compound 0.1 µM
[21] = second compound 0.1 µM, first compound 0.316 µM
[22] = second compound 0.1 µM, first compound 1 µM
[23] = second compound 0.1 µM, first compound 3.16 µM
[24] = second compound 0.1 µM, first compound 10 µM
[25] = second compound 0.316 µM, first compound 0.0316 µM
[26] = second compound 0.316 µM, first compound 0.1 µM
[27] = second compound 0.316 µM, first compound 0.316 µM
[28] = second compound 0.316 µM, first compound 1 µM
[29] = second compound 0.316 µM, first compound 3.16 µM
[30] = second compound 0.316 µM, first compound 10 µM
[31] = second compound 1 µM, first compound 0.0316 µM
[32] = second compound 1 µM, first compound 0.1 µM
[33] = second compound 1 µM, first compound 0.316 µM
[34] = second compound 1 µM, first compound 1 µM
[35] = second compound 1 µM, first compound 3.16 µM
[36] = second compound 1 µM, first compound 10 µM

CC1(C)CCC(CN2CCN(c3ccc(C(=O)NS(=O)(=O)c4ccc(NCC5CCOCC5)c([N+](=O)[O-])c4)c(Oc4cnc5[nH]ccc5c4)c3)CC2)=C(c2ccc(Cl)cc2)C1 + COc1c(OCCCN2CCOCC2)ccc2c3n(c(=NC(=O)c4cnc(N)nc4)nc12)CCN3
pIC50 (second compound 0.00316 µM): < 5.00
pIC50 (second compound 0.01 µM): < 5.00
pIC50 (second compound 0.0316 µM): < 5.00
pIC50 (second compound 0.1 µM): < 5.00
pIC50 (second compound 0.316 µM): > 7.50
pIC50 (second compound 1 µM): > 7.50
viability, T/C [1]: 80.4%
viability, T/C [2]: 87%
viability, T/C [3]: 82.9%
viability, T/C [4]: 99.9%
viability, T/C [5]: 80.3%
viability, T/C [6]: 78.3%
viability, T/C [7]: 79.2%
viability, T/C [8]: 79.7%
viability, T/C [9]: 92%
viability, T/C [10]: 87.9%
viability, T/C [11]: 76.2%
viability, T/C [12]: 90.2%
viability, T/C [13]: 77.5%
viability, T/C [14]: 71.2%
viability, T/C [15]: 80%
viability, T/C [16]: 83.1%
viability, T/C [17]: 73%
viability, T/C [18]: 69.6%
viability, T/C [19]: 55.7%
viability, T/C [20]: 54.8%
viability, T/C [21]: 69.7%
viability, T/C [22]: 63.4%
viability, T/C [23]: 52.5%
viability, T/C [24]: 67.6%
viability, T/C [25]: 26.4%
viability, T/C [26]: 23.5%
viability, T/C [27]: 25.5%
viability, T/C [28]: 28.9%
viability, T/C [29]: 25.5%
viability, T/C [30]: 22.8%
viability, T/C [31]: 4.5%
viability, T/C [32]: 3.78%
viability, T/C [33]: 4.07%
viability, T/C [34]: 3.93%
viability, T/C [35]: 4.32%
viability, T/C [36]: 4.03%

CCCS(=O)(=O)Nc1ccc(F)c(C(=O)c2c[nH]c3ncc(-c4ccc(Cl)cc4)cc23)c1F + COc1c(OCCCN2CCOCC2)ccc2c3n(c(=NC(=O)c4cnc(N)nc4)nc12)CCN3
pIC50 (second compound 0.00316 µM): 5.29
pIC50 (second compound 0.01 µM): 5.27
pIC50 (second compound 0.0316 µM): 5.35
pIC50 (second compound 0.1 µM): 5.68
pIC50 (second compound 0.316 µM): > 7.50
pIC50 (second compound 1 µM): > 7.50
viability, T/C [1]: 84.8%
viability, T/C [2]: 102%
viability, T/C [3]: 84.6%
viability, T/C [4]: 102%
viability, T/C [5]: 74.1%
viability, T/C [6]: 17.9%
viability, T/C [7]: 84.2%
viability, T/C [8]: 82.3%
viability, T/C [9]: 93.9%
viability, T/C [10]: 84.3%
viability, T/C [11]: 75.6%
viability, T/C [12]: 20%
viability, T/C [13]: 74.1%
viability, T/C [14]: 78.2%
viability, T/C [15]: 76.5%
viability, T/C [16]: 74.3%
viability, T/C [17]: 64.9%
viability, T/C [18]: 16.2%
viability, T/C [19]: 55.8%
viability, T/C [20]: 56.5%
viability, T/C [21]: 64.7%
viability, T/C [22]: 59.1%
viability, T/C [23]: 45.2%
viability, T/C [24]: 12.3%
viability, T/C [25]: 28.1%
viability, T/C [26]: 29.7%
viability, T/C [27]: 29.1%
viability, T/C [28]: 27.6%
viability, T/C [29]: 26.6%
viability, T/C [30]: 8.09%
viability, T/C [31]: 4.14%
viability, T/C [32]: 4.88%
viability, T/C [33]: 4.04%
viability, T/C [34]: 5.95%
viability, T/C [35]: 5.41%
viability, T/C [36]: 3.73%

C[C@@H](NC(=O)c1ncnc(N)c1Cl)c1ncc(C(=O)Nc2cc(C(F)(F)F)c(Cl)cn2)s1 + COc1c(OCCCN2CCOCC2)ccc2c3n(c(=NC(=O)c4cnc(N)nc4)nc12)CCN3
pIC50 (second compound 0.00316 µM): < 5.00
pIC50 (second compound 0.01 µM): < 5.00
pIC50 (second compound 0.0316 µM): < 5.00
pIC50 (second compound 0.1 µM): < 5.00
pIC50 (second compound 0.316 µM): > 7.50
pIC50 (second compound 1 µM): > 7.50
viability, T/C [1]: 83.1%
viability, T/C [2]: 91.9%
viability, T/C [3]: 93.5%
viability, T/C [4]: 96.2%
viability, T/C [5]: 86.4%
viability, T/C [6]: 76.4%
viability, T/C [7]: 87%
viability, T/C [8]: 101%
viability, T/C [9]: 87.4%
viability, T/C [10]: 101%
viability, T/C [11]: 99.7%
viability, T/C [12]: 71.4%
viability, T/C [13]: 79.7%
viability, T/C [14]: 79.2%
viability, T/C [15]: 91.6%
viability, T/C [16]: 75.9%
viability, T/C [17]: 74.5%
viability, T/C [18]: 61.6%
viability, T/C [19]: 51.1%
viability, T/C [20]: 52.5%
viability, T/C [21]: 57.5%
viability, T/C [22]: 66.6%
viability, T/C [23]: 59.9%
viability, T/C [24]: 56.6%
viability, T/C [25]: 28.3%
viability, T/C [26]: 27.8%
viability, T/C [27]: 30%
viability, T/C [28]: 37.3%
viability, T/C [29]: 36.3%
viability, T/C [30]: 31.9%
viability, T/C [31]: 5.16%
viability, T/C [32]: 4.86%
viability, T/C [33]: 5.09%
viability, T/C [34]: 7.06%
viability, T/C [35]: 7.47%
viability, T/C [36]: 5.33%
